Columns and labels:
Format in all cases: in vivo
[1] = system: barnyard grass (Eo); assay: Test Example 1: herbicidal effects by flooded paddy field treatment; details: dose 100 gai/10a, examined on 21st day after treatment, index 0-5 per Table 44;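 note: 0-5 growth inhibition grade; 5 = over 90%; 4 = 70-90%; 3 = 50-70%; 2 = 30-50%; 1 = 10-30%; 0 = under 10%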
Summary of the method: (§1)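 Herbicidal effect is a graded score assigned 21 days after treatment. Application was one day after sowing into flooded (3 cm) puddled paddy soil, with diluted wettable powder dropped onto the water at 100 g active ingredient per 10 ares. Plants were kept in a greenhouse.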

[2] = system: monochoria (Mo); assay: Test Example 4: selectivity for a crop plant by flooded paddy field treatment; set-up: scale not given here; details: for Mo (herbicidal effects, index): dose 25 g active ingredient per 10 ares, examined on the 21st day after treatment; for Mo (herbicidal effect index): monochoria, dose 25 gai/10a, 21st day after treatment, index per Table 44
Summary of the method: (§2)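 Scores reflect visual herbicidal effect, graded on a standard scale 21 days after water-surface treatment. The product, a wettable powder diluted with water, went on dropwise at 25 g a.i. per 10 ares one day after flooding to 3 cm. Weeds grew from sown seed and rice was transplanted at second-leaf stage.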

[3] = system: barnyard grass (Eo); assay: as above; set-up: scale not given here; details: for Eo (herbicidal effects, index): dose 25 g active ingredient per 10 ares, examined on the 21st day after treatment; for Eo (herbicidal effect index): barnyard grass, dose 25 gai/10a, 21st day after treatment, index per Table 44
Summary of the method: as §2

[4] = system: rice (Or); assay: as above; set-up: scale not given here; details: rice transplanted at second leaf stage; for Or (effect on crop plant rice, index): dose 25 g active ingredient per 10 ares, examined on the 21st day after treatment; for Or (herbicidal effect index on crop): dose 25 gai/10a, 21st day after treatment, index per Table 44
Summary of the method: as §2

[5] = system: monochoria (Mo); assay: Test Example 1: herbicidal effects by flooded paddy field treatment; details: dose 100 gai/10a, examined on 21st day after treatment, index 0-5 per Table 44;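 note: 0-5 growth inhibition grade; 5 = over 90%; 4 = 70-90%; 3 = 50-70%; 2 = 30-50%; 1 = 10-30%; 0 = under 10%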
Summary of the method: as §1

[6] = system: barnyard grass (Ec); assay: Test Example 2: herbicidal effects by upland soil treatment; set-up: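 0-5 growth inhibition grade; 5 = over 90%; 4 = 70-90%; 3 = 50-70%; 2 = 30-50%; 1 = 10-30%; 0 = under 10%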; details: dose 100 g active ingredient per 10 ares, examined on the 21st day after treatment, standards of Table 44
Summary of the method: (§3)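 Pre-emergence test: barnyard grass and green foxtail sown in upland soil, then soil surface sprayed with wettable-powder formulation at 100 g active ingredient per 10 ares (100 l per 10 ares). Grown in greenhouse; herbicidal effect scored on a rating scale 21 days after treatment.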

[7] = system: green foxtail (Se); assay: as above; details: dose 100 g active ingredient per 10 ares, examined on the 21st day after treatment, standards of Table 44;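 note: 0-5 growth inhibition grade; 5 = over 90%; 4 = 70-90%; 3 = 50-70%; 2 = 30-50%; 1 = 10-30%; 0 = under 10%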
Summary of the method: as §3

SMILES | Herbicidal effect index, Eo [1] | Mo (herbicidal effects, index) [2] | Eo (herbicidal effects, index) [3] | Or (effect on crop plant rice, index) [4] | Herbicidal effect index, Mo [5] | herbicidal effects, Ec (barnyard grass) [6] | herbicidal effects, Se (green foxtail) [7] | Mo (herbicidal effect index) [2] | Eo (herbicidal effect index) [3] | Or (herbicidal effect index on crop) [4]
CC(C)C(c1cncnc1C(F)(F)Cl)N(C)C(=O)Nc1ccccc1 (racemic) [Compound 1-38] | 5 | 5 | 5 | 0 | 5 | 5 | 4 | – | – | –
CC(C)C(c1cncnc1C(F)(F)F)N(C)C(=O)Cc1cc(F)ccc1F (racemic) [Compound 1-40] | 5 | 5 | 5 | 0 | 5 | 5 | 4 | – | – | –
CC(C)C(c1cncnc1C(F)(F)F)N(C)C(=O)Cc1ccc([N+](=O)[O-])cc1 (racemic) [Compound 1-52] | 5 | 5 | 5 | 1 | 5 | 5 | 5 | – | – | –
CCCN(C(=O)Cc1ccc(C)cc1)C(c1cncnc1C(F)(F)F)C(C)C (racemic) [Compound 1-62] | 5 | 5 | 5 | 1 | 5 | 4 | 4 | – | – | –
CCCN(C(=O)Cc1ccccc1)C(c1cncnc1C(F)(F)F)C(C)C (racemic) [Compound 1-63] | 5 | 5 | 5 | 1 | 5 | 5 | 5 | – | – | –
CCc1ccc(CC(=O)N(C)C(c2cncnc2C(F)(F)F)C(C)C)cc1 (racemic) [Compound 1-67] | 5 | 5 | 5 | 1 | 5 | 5 | 5 | – | – | –
Cc1ccc(CC(=O)N(C)C(c2cncnc2C(F)(F)F)C(C)C)cc1C (racemic) [Compound 1-72] | 5 | 5 | 5 | 0 | 5 | 5 | 4 | – | – | –
CC(C)C(c1cncnc1C(F)(F)F)N(C)C(=O)Cc1cccc([N+](=O)[O-])c1 (racemic) [Compound 1-74] | 5 | 5 | 5 | 0 | 5 | 5 | 5 | – | – | –
CN(C(=O)Cc1ccccc1)C(c1cncnc1C(F)(F)Cl)C1CC1 (racemic) [Compound 1-91] | 5 | 5 | 5 | 1 | 5 | 4 | 5 | – | – | –
CC(C)C(c1cncnc1C(F)(F)F)N(C(=O)Cc1ccccc1)C(C)C (racemic) [Compound 1-103] | 5 | – | – | – | 5 | 5 | 5 | 5 | 5 | 1
COCN(C(=O)Cc1ccc(C)cc1)C(c1cncnc1C(F)(F)F)C(C)C (racemic) [Compound 1-106] | 5 | – | – | – | 5 | 5 | 4 | 5 | 5 | 0
CC(C)C(c1cncnc1C(F)(F)F)N(C)C(=O)OCc1ccccc1 (racemic) [Compound 1-118] | 5 | – | – | – | 5 | 5 | 5 | 3 | 5 | 0
Cc1cc(CC(=O)N(C)C(c2cncnc2C(F)(F)F)C(C)C)ccc1Cl (racemic) [Compound 1-120] | 5 | – | – | – | 5 | 5 | 4 | 5 | 5 | 0
Cc1ccc(CC(=O)N(C)C(c2cncnc2C(F)(F)F)C(C)C)cc1Cl (racemic) [Compound 1-121] | 5 | – | – | – | 5 | 5 | 4 | 5 | 5 | 1
CC(C)C(c1cncnc1C(F)(F)F)N(C)C(=O)Cc1c(F)cccc1F (racemic) [Compound 1-123] | 5 | – | – | – | 5 | 5 | 5 | 5 | 5 | 1
CC(C)C(c1cncnc1C(F)(F)F)N(C)C(=O)Cc1ccc(Cl)cc1Cl (racemic) [Compound 1-124] | 5 | – | – | – | 5 | 5 | 5 | 5 | 5 | 0

Reference: patent US6806230B1, “Pyrimidine derivatives and herbicides containing them” (Kumiai Chemical Industry Co., Ltd., priority 1999, dated 2004)
